These results are taken from US8586555B2, “Immunomodulatory compositions, formulations, and methods for use thereof” (Dynavax Technologies Corporation, priority 2001, dated 2013).

The test system of assay [1] is human peripheral blood mononuclear cells (hPBMC). The assay can be described thus: human PBMC assay, Example 7 (oligo 20 μg/ml, cPLGA 100 μg/ml). In kind it is cell-based. Particulars: for immunomodulatory activity: combined with cPLGA; for IFN-α Mean / IFN-γ Mean: mean of donors 28115-28118. The method, then: (§1) Hexameric oligonucleotides were tested for immunomodulatory activity alone and complexed with lactic acid/glycolic acid copolymer microcarrier beads using a human peripheral blood mononuclear cells (hPBMC) assay. Peripheral blood was collected from healthy volunteers by venipuncture using heparinized syringes. Blood was layered onto a FICOLL® (Amersham Pharmacia Biotech) cushion and centrifuged. hPBMCs, located at the FICOLL® interface, were collected, then washed twice with cold phosphate buffered saline (PBS). The cells were resuspended and cultured in 48 well plates at 2×10^6 cells/mL at 37° C. in RPMI 1640 with 10% heat-inactivated human AB serum plus 50 units/mL penicillin, 50 μg/mL streptomycin, 300 μg/mL glutamine, 1 mM sodium pyruvate, and 1×MEM non-essential amino acids (NEAA).
(§2) Oligonucleotides were tested as single agents, or in combination with PLGA microspheres (unmodified or cationic). All oligonucleotides contained 100% phosphorothioate linkages and were tested at 20 μg/ml. The PLGA microcarriers were used at 250 μg/ml. When oligos were tested with PLGA microcarriers, the oligo and the microcarriers were added at the same time to the culture. The cells were cultured in the in the presence of test samples for 24 hours, then cell-free medium was collected from each well and assayed for IFN-γ and IFN-α concentration. Two different oligonucleotides were used as controls: a first oligonucleotide known to have immunostimulatory activity (a 22mer oligonucleotide containing an ISS (“ISS+,” 5′-[…]-3′(SEQ ID NO:2)) and a second oligonucleotide of similar sequence but lacking immunostimulatory activity (“ISS−,” 5′-[…]-3′ (SEQ ID NO:1)). SAC (PANSORBIN® CalBiochem, 1/5000 dilution) and a untreated culture were used as additional positive and negative controls, respectively. SAC contains Staph. aureus (Cowan I) cell material. All samples were assayed in duplicate.
(§3) IFN-γ and IFN-α were assayed using CYTOSCREEN™ ELISA kits from BioSource International, Inc., according to the manufacturer's instructions.
(§4) The immunomodulatory activity of the oligonucleotides used in Examples 3 and 4 was confirmed with the human PBMC assay using PBMCs from an additional four donors (donors 28051-28054). Oligonucleotides were tested alone or in combination with cationic PLGA as described in Example 3, except that 96 well plates were used instead of 48 well plates and the oligonucleotides were premixed with the cationic microspheres at room temperature for 15 minutes before they were added to the culture, rather than being added simultaneously to the culture.
Additional oligonucleotides, some incorporating modified bases, were tested for immunomodulatory activity in the human PBMC assay. Oligonucleotides were tested alone or in combination with cPLGA as described in Example 5. The oligonucleotides were premixed with the cationic PLGA microspheres for 15 minutes at room temperature at concentrations of 20 μg/ml and 100 μg/ml, respectively.

Assay [2] has the same test system. As to the kind of experiment: human PBMC assay, Example 6. In kind it is cell-based. How it is done:
as §1, §2, §3, §4
Additional oligonucleotides were tested for immunomodulatory activity in the human PBMC assay. Oligonucleotides were tested alone or in combination with cPLGA as described in Example 5.
Additional oligonucleotides were tested using hPBMCs from volunteers 154-157 using the same assay. Results, which are shown in Table 7, confirm the activity of oligonucleotides fitting the formula 5′-X1TCGX2-3′, where the oligonucleotide is a 3-6mer, X1 is zero or one nucleotide and X2 is zero to three nucleotides.

The mark [3] stands for this setting: delivered as oligonucleotide/MC complex (cPLGA).

Turning to 5′-AATCGT-3′ [Oligonucleotide 6-25], the “immunomodulatory activity” value in assay [1] is listed as “active”. Also, the IFN-α turned out to be 7 pg/mL in assay [1] (donor 28115), 0 pg/mL in assay [1] (donor 28116), 0 pg/mL in assay [1] (donor 28117) and 0 pg/mL in assay [1] (donor 28118). The IFN-γ in assay [1] (donor 28115) came to 2 pg/mL; in assay [1] (donor 28116) it was 15 pg/mL; in assay [1] (donor 28117), 11 pg/mL; in assay [1] (donor 28118), 0 pg/mL. Also, the “IFN-α Mean” value in assay [1] came to 2 pg/mL. In assay [1], the “IFN-γ Mean” value amounted to 7 pg/mL.

Consider 5′-UCGTTT-3′ [Oligonucleotide 6-21], for which the “immunomodulatory activity” value in assay [1] is “active”. Further, the IFN-α in assay [1] (donor 28115), in assay [1] (donor 28116), in assay [1] (donor 28117) and in assay [1] (donor 28118) was 0 pg/mL throughout. Further, the IFN-γ in assay [1] (donor 28115) was 27 pg/mL; in assay [1] (donor 28116), 0 pg/mL; in assay [1] (donor 28117) it was 7 pg/mL; in assay [1] (donor 28118), 0 pg/mL. In addition, in assay [1], the “IFN-α Mean” value was determined as 0 pg/mL. Also, the “IFN-γ Mean” value in assay [1] was 8 pg/mL.

5′-CCGTTT-3′ [Oligonucleotide 6-14]: the “immunomodulatory activity” value in assay [2] (delivered alone) and in assay [2] (setting [3]) was “inactive” in each case. Besides, the IFN-α was 15 pg/mL in assay [2] (donor 28075), 51 pg/mL in assay [2] (donor 28076), 9 pg/mL in assay [2] (donor 28077) and 230 pg/mL in assay [2] (donor 28078). The IFN-γ in assay [2] (donor 28075) came out at 11 pg/mL; in assay [2] (donor 28076), 12 pg/mL; in assay [2] (donor 28077), 14 pg/mL; in assay [2] (donor 28078), 11 pg/mL. In addition, the “IFN-α Mean” value in assay [2] (mean of donors 28075-28078) stood at 76 pg/mL. The “IFN-γ Mean” value in assay [2] (mean of donors 28075-28078) came to 12 pg/mL.

As to 5′-TCG-3′ [Oligonucleotide 3-1], in assay [2] (setting [3]), the “immunomodulatory activity” value was “active in two out of four donors”. Moreover, the IFN-α in assay [2] (donor 28075) stood at 0 pg/mL; in assay [2] (donor 28076), 0 pg/mL; in assay [2] (donor 28077), 4 pg/mL; in assay [2] (donor 28078), 11 pg/mL. Besides, the IFN-γ is 7 pg/mL in assay [2] (donor 28075), 11 pg/mL in assay [2] (donor 28076), 12 pg/mL in assay [2] (donor 28077) and 15 pg/mL in assay [2] (donor 28078). Besides, the “IFN-α Mean” value in assay [2] (mean of donors 28075-28078) was 4 pg/mL. The “IFN-γ Mean” value in assay [2] (mean of donors 28075-28078) was found to be 11 pg/mL.

Regarding “5′-TCCGGA-3′ [Oligonucleotide 6-18, reference compound]”, the “immunomodulatory activity” value in assay [2] (setting [3]) is “largely inactive”. For the same substance, the “IFN-α Mean” value in assay [2] (mean of volunteers 154-157) was 0 pg/mL. Also, in assay [2] (mean of volunteers 154-157), the “IFN-γ Mean” value is 4 pg/mL. Moreover, the IFN-α in assay [2] (volunteer 154), in assay [2] (volunteer 155), in assay [2] (volunteer 156) and in assay [2] (volunteer 157) was 0 pg/mL in each case. The IFN-γ stood at 0 pg/mL in assay [2] (volunteer 154), 0 pg/mL in assay [2] (volunteer 155), 15 pg/mL in assay [2] (volunteer 156) and 0 pg/mL in assay [2] (volunteer 157).

With 5′-TTTTCG-3′ [Oligonucleotide 6-5], in assay [2] (mean of volunteers 154-157), the “IFN-α Mean” value is 0 pg/mL. The “IFN-γ Mean” value in assay [2] (mean of volunteers 154-157) worked out at 3 pg/mL. Further, the IFN-α in assay [2] (volunteer 154), in assay [2] (volunteer 155), in assay [2] (volunteer 156) and in assay [2] (volunteer 157) was 0 pg/mL each time. The IFN-γ in assay [2] (volunteer 154) was determined as 0 pg/mL; in assay [2] (volunteer 155), 0 pg/mL; in assay [2] (volunteer 156), 11 pg/mL; in assay [2] (volunteer 157), 0 pg/mL.

Turning to 5′-TCGT-3′ [Oligonucleotide 4-1], the “immunomodulatory activity” value in assay [2] (setting [3]) was “active in two out of four donors”. The IFN-α in assay [2] (donor 28075) was determined as 0 pg/mL; in assay [2] (donor 28076), 3 pg/mL; in assay [2] (donor 28077), 0 pg/mL; in assay [2] (donor 28078), 10 pg/mL. The IFN-γ in assay [2] (donor 28075) is 9 pg/mL; in assay [2] (donor 28076), 12 pg/mL; in assay [2] (donor 28077), 14 pg/mL; in assay [2] (donor 28078) it was 14 pg/mL. Moreover, the “IFN-α Mean” value in assay [2] (mean of donors 28075-28078) was determined as 3 pg/mL. Moreover, the “IFN-γ Mean” value in assay [2] (mean of donors 28075-28078) came to 12 pg/mL.

As to 5′-TCGTCG-3′ [Oligonucleotide 6-12], in assay [2] (setting [3]), the “immunomodulatory activity” value is listed as “highly active”. The IFN-α in assay [2] (donor 28075) was found to be 5 pg/mL; in assay [2] (donor 28076), 3 pg/mL; in assay [2] (donor 28077) it was 187 pg/mL; in assay [2] (donor 28078) it was 181 pg/mL. Besides, the IFN-γ in assay [2] (donor 28075) is 8 pg/mL; in assay [2] (donor 28076) it was 13 pg/mL; in assay [2] (donor 28077), 13 pg/mL; in assay [2] (donor 28078) it was 18 pg/mL. Moreover, the “IFN-α Mean” value in assay [2] (mean of donors 28075-28078) came to 94 pg/mL. Also, the “IFN-γ Mean” value in assay [2] (mean of donors 28075-28078) is 13 pg/mL.

In the case of 5′-TCGCGA-3′ [Oligonucleotide 6-10], the “IFN-α Mean” value in assay [2] (mean of volunteers 154-157) was determined as 0 pg/mL. The “IFN-γ Mean” value in assay [2] (mean of volunteers 154-157) came to 4 pg/mL. Besides, the IFN-α in assay [2] (volunteer 154), in assay [2] (volunteer 155), in assay [2] (volunteer 156) and in assay [2] (volunteer 157) was 0 pg/mL each time. In addition, the IFN-γ came out at 0 pg/mL in assay [2] (volunteer 154), 0 pg/mL in assay [2] (volunteer 155), 15 pg/mL in assay [2] (volunteer 156) and 0 pg/mL in assay [2] (volunteer 157).

In the case of “5′-GACGTT-3′ [Oligonucleotide 6-17, reference compound]”, the “immunomodulatory activity” value in assay [2] (setting [3]) was “largely inactive”. In addition, the “IFN-α Mean” value in assay [2] (mean of volunteers 154-157) stood at 0 pg/mL. Also, the “IFN-γ Mean” value in assay [2] (mean of volunteers 154-157) is 4 pg/mL. The IFN-α in assay [2] (volunteer 154), in assay [2] (volunteer 155), in assay [2] (volunteer 156) and in assay [2] (volunteer 157) was 0 pg/mL each time. Further, the IFN-γ in assay [2] (volunteer 154) was found to be 0 pg/mL; in assay [2] (volunteer 155), 0 pg/mL; in assay [2] (volunteer 156), 16 pg/mL; in assay [2] (volunteer 157), 0 pg/mL.

In the case of 5′-GCGTTT-3′ [Oligonucleotide 6-15], the “immunomodulatory activity” value in assay [2] (delivered alone) and in assay [2] (setting [3]) was “inactive” throughout. For the same substance, the IFN-α in assay [2] (donor 28075) amounted to 36 pg/mL; in assay [2] (donor 28076), 9 pg/mL; in assay [2] (donor 28077), 35 pg/mL; in assay [2] (donor 28078), 36 pg/mL. Besides, the IFN-γ worked out at 11 pg/mL in assay [2] (donor 28075), 12 pg/mL in assay [2] (donor 28076), 15 pg/mL in assay [2] (donor 28077) and 11 pg/mL in assay [2] (donor 28078). Besides, in assay [2] (mean of donors 28075-28078), the “IFN-α Mean” value was 29 pg/mL. For the same substance, in assay [2] (mean of donors 28075-28078), the “IFN-γ Mean” value worked out at 13 pg/mL.

For 5′-CGATCG-3′ [Oligonucleotide 6-11], the “IFN-α Mean” value in assay [2] (mean of volunteers 154-157) came out at 0 pg/mL. The “IFN-γ Mean” value in assay [2] (mean of volunteers 154-157) turned out to be 3 pg/mL. The IFN-α in assay [2] (volunteer 154), in assay [2] (volunteer 155), in assay [2] (volunteer 156) and in assay [2] (volunteer 157) was 0 pg/mL throughout. Besides, the IFN-γ in assay [2] (volunteer 154) worked out at 0 pg/mL; in assay [2] (volunteer 155), 0 pg/mL; in assay [2] (volunteer 156), 10 pg/mL; in assay [2] (volunteer 157), 0 pg/mL.

5′-ACGTTT-3′ [Oligonucleotide 6-13]: the “immunomodulatory activity” value in assay [2] (delivered alone) and in assay [2] (setting [3]) was “inactive” each time. The IFN-α in assay [2] (donor 28075) came out at 10 pg/mL; in assay [2] (donor 28076), 39 pg/mL; in assay [2] (donor 28077), 28 pg/mL; in assay [2] (donor 28078), 34 pg/mL. In addition, the IFN-γ in assay [2] (donor 28075) is 8 pg/mL; in assay [2] (donor 28076) it was 225 pg/mL; in assay [2] (donor 28077), 18 pg/mL; in assay [2] (donor 28078), 15 pg/mL. Besides, the “IFN-α Mean” value in assay [2] (mean of donors 28075-28078) came to 28 pg/mL. In addition, the “IFN-γ Mean” value in assay [2] (mean of donors 28075-28078) was found to be 67 pg/mL.
